Experimental data: patent publication US20230302033A1, “FORMULATIONS OF NICOTINIC ACID DERIVATIVES AND FLAVONOID POLYPHENOLS AND USES THEREOF” (Animal Biosciences, Inc., priority 2021, published 2023)
Entries after “also recorded” stand apart in the source; their conditions may differ.

Assays:
NAD = experiment: Bioavailability and pharmacokinetics of NaR and fisetin: whole blood NAD (Example 6, Studies #1 and #2); type: in vivo, Canis familaris (dog)/Beagle
Experimental: A series of pharmacokinetic studies were conducted to evaluate the bioavailability of a series of dosages and dosing regimens as measured in whole blood in non-fasted, adult Beagle dogs. NaR, NMN, Fisetin, individually and combination dosing (NaR-Fisetin and NMN-Fisetin) were tested.
Tables 1 and 2 show the dosing regimens of Study #1 conducted over 7 days and Study #2 conducted over 28 days, respectively. In Study #1, three dosage combinations were tested (Groups 1-3). An additional group (Group 4) was included to test the effects of fasting on the whole blood concentration of NAD. In Study #2, the effects of each compound individually and in combination were evaluated (Groups 1-3). Study #2 contained another test group (Group 4), which was included to compare the effects of NMN vs NaR in combination with Fisetin by Day 7 to determine if the effects seen on NAD concentration were unique to NaR vs. NAD booster, in general. Baseline NAD concentrations sampled over 24 hours on day −7 served as controls for endogenous NAD concentrations.
Two mL blood samples were collected at each time point using K2EDTA as an anticoagulant from all animals in each dose group. A sample was obtained prior to dosing (Day −7 pre-dose). On Day −7, groups 1-3 had 1 sample collected prior to feeding, and at times 0, 0.25, 0.5, 1, 2, 4, 6, 8, 12, and 24 hours post-Time Zero. On Day 2, groups 1-3 had 1 sample collected prior to feeding (˜2 hr prior to Time Zero) and at times 0, 0.25, 0.5, 1, 2, 4, 6, 8, 12, and 24 hours post-dose. On Days 3-5, samples were collected 2 hours post-dose, and on Day 7 samples were collected prior to feeding Groups 1-3 (˜2 hours prior to Time Zero) from all animals, and at time points 0.25, 0.5, 1, 2, 4, 6, 8, 12, and 24 hours post-dose.
For Group 2, on Day 21, post-dosing, and on Day 35, one sample was collected prior to feeding, and at times 0, 0.25, 0.5, 1, 2, 4, 6, 8, 12, and 24 hours post-Time Zero. The samples were processed for NAD+.
Two mL blood samples were collected at each time point using K2EDTA as an anticoagulant from all animals in each dose group. On Day 0 each group had 1 sample collected at times 0, 0.5, 1, 2, 4, 8, and 12 hours post-Time Zero. On Days 1, 2, 3, and 7, each group had 1 sample collected at times 0, 0.5, 1, 2, 4, 8, and 12 hours post-dose. On Days 14, 21, and 28 Groups 1-3 had samples taken at 0, 0.5, 1, 2, and 12 hours post-dose.
Immediately after collection, the sample tubes were inverted multiple times to ensure homogenization, then placed in an ice water bath until analysis. All samples were processed for NAD+ analysis and Fisetin analysis.
The bioanalytical data was used in the generation of a pharmacokinetic data using parameters calculated for each individual animal for Days 2 and 7, including: Tmax, Cmax, AUC0-24 and T½, as described in the previous examples, and the effect of repeat dosing on exposure was assessed by statistical analyses, e.g., mean and standard deviation for numerical parameters.

male Beagle dogs = experiment: Seven day repeat dose tolerability study of NaR; type: in vivo, Canis familaris (dog)/Beagle; conditions: oral capsule, 10, 20 and 30 mg/kg/day for seven days
Experimental: The objective of this study was to evaluate the tolerability and pharmacokinetic profile following 7-days of repeat dose administration of NaR.
NaR is provided as 100 mg capsule, size 4, stored at 18-26° C., and fisetin is provided as 100 mg capsule, size 0, stored at 18-26° C. Canis familaris (dog)/Beagle—nine non-naïve males, age 1-3 years, weight 7-11 kg.
(§1) The appropriate number of NaR capsules were administered once daily to non-naïve male beagle dogs. Capsules were followed by at least 5 mL of tap water to ensure complete delivery. Animals were fed approximately 2 hours prior to dosing, with food removed approximately 2 hours post-dose. Samples for bioanalysis were collected during the pre-dose period (Day −7; based on Time Zero of 9 am) at 0, 0.25, 0.5, 1, 2, 4, 6, 8, 12, and 24 hours post-Time Zero. Samples were collected on Day 1 and 7 at 0, 0.25, 0.5, 1, 2, 4, 6, 8, 12, and 24 hours post dose, and on Days 3-5 at 2 hours post dose. Samples were analyzed for NAD+ using a bioassay.

NAD+ = experiment: Treated whole blood NAD+ pharmacokinetics after 7-day oral NaR (Examples 1 and 4); type: in vivo, Canis familaris (dog)/Beagle
Experimental: as §1
A non-compartmental Pharmacokinetic (PK) approach consistent with oral route of administration was used to estimate PK parameters in Watson LIMS (version 7.5). All parameters were generated from individual concentrations in treated whole blood whenever practical. Mean values for each dose group were also reported. All concentration values were in ng/mL, and all time points were in hours. Nominal dose concentrations and sampling times were used. The observed maximum treated whole blood concentration (Cmax), time of Cmax (Tmax), and AUC (area under the concentration vs. time curve) were determined directly from the data during the entire 24 hour time interval post dosing. The dose levels were either 10, 20, or 30 mg/kg/day (Groups 1, 2, and 3, respectively). PK samples were collected on days −7 predose, 1 and 7 post dose, of a seven day once daily study. Samples on days 3, 4, and 5 postdose, at only one timepoint were collected but not included in PK parameter estimation.
Whenever possible, standard deviation and coefficient of variation determined by Watson LIMS were used. For analyses that were not supported by Watson, i.e. custom comparisons, Excel was used, and the statistics were reported as determined by Excel algorithms.

purpose-bred beagles = experiment: Tolerability of orally administered NaR, single dose escalation and 7-day repeat dosing; type: in vivo
Experimental: The tolerability of NaR administered orally was determined in a two-phase laboratory study in purpose-bred beagles (male and female, 6.3-9.2 kg, 6 months old at the start of the study). The first phase of the study included single dose escalations of 100, 300, 1000 and 2000 mg/kg (n=4 per group). The second phase tested repeat dosing consisting of daily dosing over seven days of 100, 300 and 1000 mg/kg (n=6 per group). Administration occurred via oral gavage with an 18 French catheter into the stomach. The animals were assigned to groups by a stratified randomization scheme designed to achieve similar group mean body weights. Males and females were randomized separately.

[1] = tested on: mature purpose-bred beagles and mongrels; experiment: Activity and safety of orally administered NaR, 28-day placebo-controlled study; type: in vivo
From the text: A double blinded, placebo-controlled, non-randomized laboratory study to assess activity and safety was completed in 15 mature purpose-bred beagles and mongrels over a period of 28 days. The four males and 11 females ranged in age from 4-11 years, with a mean of 7.75 years. Body weights for beagles (n=12) were 9.5-15 kg and for mongrels (n=3) 24-40 kg. The animals were fitted with activity collars and housed in a room that allowed free movement for ˜ nine hours per day. They received three enrichment periods of 15 minutes per day consisting of interaction with caretakers. The activity of the animals was tracked 24 hours per day using actigraphy (accelerometers attached to the animal's collar) and force plate analysis for assessing changes to gait. A modified canine cognitive dysfunction rating (CCDR) (Madari et al., “Assessment of Severity and Progression of Canine Cognitive Dysfunction Syndrome Using the Canine Dementia Scale (CADES),” Applied Animal Behaviour Science 171: 138-145 (2015), which is hereby incorporated by reference in its entirety) and canine orthopedic index (COI) (Brown, D., “The Canine Orthopedic Index. Step 1: Devising the Items,” Veterinary Surgery 43: 232-240 (2014); Brown, D., “The Canine Orthopedic Index. Step 2: Psychometric Testing,” Veterinary Surgery 43: 241-246 (2014); and Brown, D., “The Canine Orthopedic Index. Step 3: Responsiveness Testing,” Veterinary Surgery 43: 247-254 (2014), which are hereby incorporated by reference in their entirety) were completed pretreatment, and on days 14 and 28. Physical examination, body weight, body condition score (BCS) and complete blood count and blood chemistry were evaluated pretreatment and weekly. The animals were dosed orally with capsules daily after an overnight fast.

aged C56BL/6 male mice = experiment: Frailty measurements in aged mice (Frailty Index, FRIGHT Age, AFRAID score); type: in vivo
Experimental: Frailty was measured in aged C56BL/6 male mice, starting at 18 months old (n=50 per group) monthly, over time compared with placebo-treated controls. NaR was administered in the water in low and high dosages of 60 and 400 mg/kg. The animals were group housed 4 per cage and the water was changed weekly. The animals were fed ad libitum and received daily photoperiods of approximately 12 hours of light alternating with 12 hours of darkness.
Three validated scoring methods, Frailty Index (Whitehead et al., “A clinical frailty index in aging mice: Comparisons with frailty index data in humans” J Gerontol A Biol Sci Med Sci. 69:621-632(2014)), FRIGHT Age (Schultz et al., “Age and life expectancy clocks based on machine learning analysis of mouse frailty” Nature Comm. 11(1):4618 (2020)) and AFRAID score (Schultz et al., “Age and life expectancy clocks based on machine learning analysis of mouse frailty” Nature Comm. 11(1):4618 (2020)) were conducted at 25 months of age. […]

[2] = Beagle dogs, oral NaR 10, 20, 30 mg/kg/day, post dose
[3] = beagles, oral gavage, highest dosage tested
[4] = beagles, oral gavage, single 100-2000 mg/kg and 7-day 100-1000 mg/kg
[5] = treated dogs compared with controls, oral capsules daily, 28 days
[6] = Beagle dogs, all dosing regimens of Studies #1 and #2

## O=c1c(O)c(-c2ccc(O)c(O)c2)oc2cc(O)ccc12 [fisetin, 3,3′,4′,7-tetrahydroxyflavone]
NAD; fisetin only dosing
  NAD concentration at Day 28: returned to baseline
  NAD concentration at days 7, 14 and 21: decreased
NAD; fisetin only dosing, 20 mg/kg
  whole blood NAD concentration: below 7000 ng/mL

## O=C([O-])c1ccc[n+]([C@@H]2O[C@H](CO)[C@@H](O)[C@H]2O)c1 [NaR, nicotinic acid riboside]
Male Beagle dogs
  test article-related effects on mortality or moribundity, clinical observations, body weight, food consumption; tolerability: no test article-related effects; also recorded: well tolerated
NAD+; [2]
  Median Tmax of NAD+ in treated whole blood: less than 2 hours
  Tmax of NAD+, range of values: 0 to 2 h
NAD+; Beagle dogs, oral capsule, 10-30 mg/kg/day, 7 days
  NAD+ levels after oral capsule administration: measurable increases
NAD+; all dose groups (10, 20, 30 mg/kg/day)
  Mean Cmax of NAD+, change between Day 1 and Day 7: accumulation; also recorded: increase
NAD+; highest dose group (30 mg/kg/day) compared to the others
  NAD+ Cmax ratio between Day 7 and Day 1, individual animals: clear increase
NAD+; mid dose group (20 mg/kg/day) compared to the other two groups
  NAD+ AUC0-24 ratio between Day 7 and Day 1, individual animals: higher value
NAD+; oral capsule, Beagle dogs
  Bioavailability (conclusion from NAD+ bioanalysis): bioavailable
purpose-bred beagles; 300 and 1000 mg/kg males, 300 mg/kg females, Day 2 vs pretreatment, low magnitude (e.g., 0 U/L to 2 U/L)
  increase in sorbitol dehydrogenase (SDH) activity: non-adverse
purpose-bred beagles; [3]
  maximum tolerated dosage, 7-day repeat dosing phase: 1000 mg/kg/day
  maximum tolerated dosage, single dosing phase: 2000 mg/kg
purpose-bred beagles; [4]
  Body weights and food consumption: unaffected by treatment
  Survival: All animals survived
  treatment related clinical observations: no treatment related clinical observations
[1]; oral capsules daily, 28 days
  adverse clinical observations: No adverse clinical observations
  blood chemistry and hematology results: remained within the reference ranges
[1]; pretreatment, days 14 and 28
  canine cognitive dysfunction rating (CCDR) and canine orthopedic index (COI): No changes
[1]; [5]
  movement when resting (sleep), actigraphy: less movement when resting
  overall activity (frequency and intensity), diurnal rhythm, actigraphy: increase in overall activity
Aged C56BL/6 male mice; in two of the three methods
  Frailty vs controls, both treatment groups (60 and 400 mg/kg): significantly different
Aged C56BL/6 male mice; low dose 60 mg/kg in the water, end of the study, p<0.05
  Frailty vs controls by all three methods (Frailty Index, FRIGHT Age, AFRAID score): significantly less frail
NAD; [6]
  median AUC0-24 of whole blood NAD: 133,000 ng·h/mL
  median Cmax of whole blood NAD: 6990 ng/mL
NAD; NaR only dosing, 20 mg/kg
  NAD concentration from Day 7 to Day 28: decrease
NAD; NaR only dosing, all dose levels
  NAD concentration from Day 1 to Day 7: increase
NAD; NaR only, dose of 20 mg/kg
  AUC and NAD concentrations, NaR only dose levels compared: highest AUC and NAD concentrations
